Assay results taken from US10640463B2, “Chlorhexidine crystal forms and uses thereof in medicine” (Queen Mary University of London, priority 2016, dated 2020).
“And” between values parts separate entries of the source, which are not always exact repeats. Equal entries are not always repeated.

What was measured:
[1] = system: Aggregatibacter actinomycetemcomitans (strain-Y4); test: MIC and MBC of chlorhexidine spheres; format: cell-based; parameters: key to MIC/MBC class at this concentration: The MIC was defined as the lowest concentration of chlorhexidine spheres that inhibited the growth of microorganism at each time point; The MBC was the lowest concentration of chlorhexidine spheres giving no observable bacterial growth; details: for MIC: planktonic A. actinomycetemcomitans
Protocol: (§1) The effectiveness of the chlorhexidine spheres against a panel of periodontal pathogens was evaluated by measurements of the growth (optical density) of bacterial cultures. Porphyromonas gingivalis (strain-W50), Fusobacterium nucleatum sub species polymorphum (strain-NCTC10562) and Aggregatibacter actinomycetemcomitans (strain-Y4) were grown on blood agar plates and in brain heart infusion (BHI) broth in an anaerobic environment with an atmosphere of 5% H2, 10% CO2, and 85% N2 at 37° C. for 2 days. BHI broth was pre-reduced with 5 μg/ml hemin and 5 μg/ml menadione bisulphite added. Bacterial numbers in the BHI cultures were determined and standardised by serial dilution and enumeration of colony forming units (CFUs) on agar plates. After overnight incubation, the bacterial suspensions were diluted 1:20 with fresh BHI medium to achieve an optical density of 0.1 for P. gingivalis and A. actinomycetemcomitans and 0.2 for F. nucleatum sub sp. polymorphum at 595 nm (OD595) to give approximately 6.5×10^7 colony-forming units (CFU) per ml.
(§2) Negative control (bacterial inoculum only but no chlorhexidine spheres) and blank (medium only) wells were also included. The microtiter plates were incubated for 0, 24 and 48 hours in anaerobic conditions as above and the optical density (OD) was determined at 595 nm to quantify bacterial growth. The MIC was defined as the lowest concentration of chlorhexidine spheres that inhibited the growth of microorganism at each time point. The MBC was the lowest concentration of chlorhexidine spheres giving no observable bacterial growth. MBC was determined following transfer of the microtiter well contents to micro centrifuge tubes, centrifuging to pellet the bacterial cells, washing to remove any remaining chlorhexidine spheres and incubation on blood agar plates. After incubation anaerobically growth of bacteria that had survived the treatment was recorded.

[2] = system: Porphyromonas gingivalis (strain-W50); test: MIC and MBC of chlorhexidine spheres; format: cell-based; parameters: key to MIC/MBC class at this concentration: The MIC was defined as the lowest concentration of chlorhexidine spheres that inhibited the growth of microorganism at each time point; The MBC was the lowest concentration of chlorhexidine spheres giving no observable bacterial growth
Protocol: as §1, §2

[3] = system: Fusobacterium nucleatum sub species polymorphum (strain-NCTC10562); test: MIC and MBC of chlorhexidine spheres; format: cell-based; parameters: key to MIC/MBC class at this concentration: The MIC was defined as the lowest concentration of chlorhexidine spheres that inhibited the growth of microorganism at each time point; The MBC was the lowest concentration of chlorhexidine spheres giving no observable bacterial growth; details: for MBC: F. nucleatum sub sp. polymorphum; for MIC: planktonic F. nucleatum sub sp. polymorphum
Protocol: as §1, §2

[4] = Chlorhexidine release from uncoated and polyelectrolyte-encapsulated particles (UV absorption); format: physicochemical; details: H2O, water stored and agitated
Protocol: The content of chlorhexidine in the compound, made from 0.33M CaCl2 and 15 mg/ml chlorhexidine diacetate, was determined by UV-Vis absorption (Lambda 35, Perkin Elmer, USA). […] The chlorohexidine proportion in the spheres (0.33M CaCl2 group) was calculated to be 90%-99.9% when they were co-precipitated from 15 mg/ml chlorhexidine diacetate solution. […] However, after encapsulation polyelectrolyte flakes could be seen on the surface, with the original structure covered (FIG. 11, panel (b)). In order to measure chlorhexidine release over 400 mins, samples were water stored and agitated (Vortex-Genie 2, Germany) for the whole time period. […] There was a linear relationship between chlorhexidine release and time (r2=0.99) FIG. 11, panel (d)).

L929 cells = test: Cell proliferation assay (total DNA content, Hoechst 33258); format: cell-based, mouse
Protocol: To determine any increase in cell numbers over time following chlorhexidine spheres treatment, a cell proliferation assay was performed by analysing the total DNA content using a fluorimetric plate reader based assay (Hoechst dye, R. Rago analytical biochemistry, 1990, 191: 31-34). Briefly, the 96 well plates were collected at 24 and 48 hour time points, washed twice with PBS and stored at −20° C. The cells were thawed to room temperature and 100 μl distilled water was added to each well, incubated for another hour and refrozen to suspend DNA. After 24 hrs, cells were thawed again and 100 μl of the fluorochrome Hoechst 33258 (Sigma-Aldrich, UK) at the concentration 20 μg/ml in THE buffer (2M NaCl) was added to each well. The intensity of the fluorescence was then read at A 350 nm excitation and A 460 nm emissions.

[5] = Chlorhexidine release from electrospun PLA fibres at different temperatures; format: physicochemical; details: 5% in electrospun PLA fibres, deionized water, after 120 h
Protocol: Electrospinning was utilized to fabricate spherical chlorhexidine chloride compound doped polylactic acid (PLA) fibres. Polylactic acid (Nature works, 2002D) was dissolved in a mixed solvent of chloroform and acetone (3:1 by volume) at 7 wt %. Spherical chlorhexidine chloride compounds were added at 5% weight to the PLA and mixed using a Rotomix. Electrospinning was carried out at room temperature (25° C.), with a pumping rate set at 1 ml/h, working distance at 15 cm, and voltage at 18 kv. Electrospun PLA fibres were collected on a foil. For the chlorhexidine release test, the fibres were weighed (Salter ANDER-180A weighing scale, UK) and divided into cuvettes, and each sample was 25 mg (n=5). Deionized water was added to each cuvette and fibres were kept immersed. Three groups of chlorhexidine chloride compound doped fibres were tested at different temperatures (25, 37 and 60° C.). At each time point (1, 3, 5, 10, 20, 30, 45, 72, 96, 120 h), the solutions were collected for the UV absorption test (Lambda 35, Perkin Elmer, USA) and replaced with fresh deionized water as in Example 6.

[6] = 0.00025% chlorhexidine spheres, 24 hours
[7] = 0.00025% chlorhexidine spheres, 48 hours
[8] = 0.0005% chlorhexidine spheres, 24 hours
[9] = 0.0005% chlorhexidine spheres, 48 hours
[10] = 0.001% chlorhexidine spheres, 24 hours
[11] = 0.001% chlorhexidine spheres, 48 hours
[12] = 0.002% chlorhexidine spheres, 24 hours
[13] = 0.002% chlorhexidine spheres, 48 hours
[14] = planktonic P. gingivalis, 48 hours

In the case of Cl.Cl.N=C(NCCCCCCNC(=N)NC(=N)Nc1ccc(Cl)cc1)NC(=N)Nc1ccc(Cl)cc1 [chlorhexidine spheres], the “MIC/MBC class at this concentration” value [1, 6] is reported as “MBC”, the “MIC/MBC class at this concentration” value [1, 7] is reported as “MBC” and the “MIC/MBC class at this concentration” value [1, 8] is reported as “MBC”. The “MIC/MBC class at this concentration” value [1, 9] was “MBC”, the “MIC/MBC class at this concentration” value [1, 10] was “MBC” and the “MIC/MBC class at this concentration” value [1, 11] was “MBC”. The “concentrations with antimicrobial effect” value ([1]; A. actinomycetemcomitans) was ≥ 0.00025%, the MBC ([1]; A. actinomycetemcomitans, 24 and 48 hour cultures) was 0.00025% and the MIC ([1]; 24 hours) was 0.00025%. The MIC ([1]; 48 hours) was 0.00025%, the “MIC/MBC class at this concentration” value [2, 6] was “MIC” and the “MIC/MBC class at this concentration” value [2, 7] was “MBC”. The “MIC/MBC class at this concentration” value [2, 8] was “MBC”, the “MIC/MBC class at this concentration” value [2, 9] was “MBC” and the “MIC/MBC class at this concentration” value [2, 10] was “MBC”. The “MIC/MBC class at this concentration” value [2, 11] was “MBC”, the “MIC/MBC class at this concentration” value [2, 12] was “MBC” and the “MIC/MBC class at this concentration” value [2, 13] was “MBC”. For the same compound, the “concentrations with antimicrobial effect” value ([2]; P. gingivalis) was ≥ 0.00025%, the MBC ([2]; P. gingivalis, 24 hours) was 0.0005% and the MIC ([2]; planktonic P. gingivalis, 24 hours) was 0.00025%. The MBC [2, 14] was 0.00025%, the MIC [2, 14] was 0.00025% and the “MIC/MBC class at this concentration” value [3, 8] was “No Inhibition”. For the same compound, the “MIC/MBC class at this concentration” value [3, 9] was “No Inhibition”, the “MIC/MBC class at this concentration” value [3, 10] was “MBC” and the “MIC/MBC class at this concentration” value [3, 11] was “MBC”. The “MIC/MBC class at this concentration” value [3, 12] was “MBC”, the “MIC/MBC class at this concentration” value [3, 13] was “MBC” and the “MIC/MBC class at this concentration” value ([3]; 0.004% chlorhexidine spheres, 24 hours) was “MBC”. For the same compound, the “MIC/MBC class at this concentration” value ([3]; 0.004% chlorhexidine spheres, 48 hours) was “MBC”, the MBC ([3]; 24 hours) was 0.001% and the MBC ([3]; 48 hours) was 0.001%. The “threshold for inhibition (MIC)” value ([3]; F. nucleatum, time not stated) was 0.001%, the MIC ([3]; 24 hours) was 0.0005% and 0.001% and the MIC ([3]; 48 hours) was 0.001%. For the same compound, the time to dissolution [4] was ≤ 1 h, the “effect on L929 cell proliferation (in words)” value (L929 cells; 0.00005% to 0.00025%, 24 and 48 hour treatment) was “induces proliferation” and the “effect on L929 cell proliferation (in words)” value (L929 cells; 0.0005%, 24 hour treatment) was “no proliferation”. The “concentrations profoundly reducing cell proliferation” value (L929 cells; L929 cells) was > 0.0005%, the “concentrations significantly inhibiting proliferation” value (L929 cells; L929 cells) was ≥ 0.001% and the chlorhexidine dissolved ([5]; 25° C.) was 65.8%. The chlorhexidine dissolved ([5]; 37° C.) was 79.7% and the chlorhexidine dissolved ([5]; 60° C.) was 89.6%.
